From ChEMBL document CHEMBL1129556, “Design, synthesis, and evaluation of latent alkylating agents activated by glutathione S-transferase” (J Med Chem, 1996) come the findings set out here.

Assay [1] is filed under the species Homo sapiens. Put plainly: Inhibitory activity (treatment time 120 min) against MCF-7 neo cell line. Conditions: MCF7, 2 h. In kind it is functional.
The species named for assay [2] is Homo sapiens. Put plainly: Inhibitory activity (treatment time 120 min) against MCF-7 pi cell line. In kind it is functional. Conditions: MCF7, 2 h.

Consider `NC(CCC(=O)NC(CS(=O)(=O)CCOC(=O)N(CCCl)CCCl)C(=O)NCC(=O)O)C(=O)O` (stereo not given), for which the IC50 is 133 µM in the assay filed under Homo sapiens [1] and 85.8 µM in the assay listed under Homo sapiens [2].

For `CCOC(=O)CNC(=O)C(CS(=O)(=O)CCOC(=O)N(CCCl)CCCl)NC(=O)CCC(N)C(=O)OCC` (stereo not given), the results for the IC50 in the assay filed under Homo sapiens [1] and in the assay filed under Homo sapiens [2] were 102 µM and 68.8 µM, respectively.

With `NC(CCC(=O)NC(CS(=O)(=O)C(COP(=O)(N(CCCl)CCCl)N(CCCl)CCCl)c1ccccc1)C(=O)NCC(=O)O)C(=O)O` (stereo not given), the IC50 worked out at 21.3 µM in the assay listed under Homo sapiens [1] and 13.5 µM in the assay listed under Homo sapiens [2].

With `NC(CCC(=O)NC(CS(=O)(=O)CCOP(=O)(N(CCCl)CCCl)N(CCCl)CCCl)C(=O)NC(C(=O)O)c1ccccc1)C(=O)O` (stereo not given), the 50% inhibitory concentration (IC50) in the assay filed under Homo sapiens [1] was found to be 39.9 µM; in the assay filed under Homo sapiens [2] it was 14.4 µM.

Turning to `NC(CCC(=O)NC(CS(=O)(=O)CCOP(=O)(N(CCBr)CCBr)N(CCBr)CCBr)C(=O)NC(C(=O)O)c1ccccc1)C(=O)O` (stereo not given), the values for the IC50 in the assay listed under Homo sapiens [1] and in the assay listed under Homo sapiens [2] were 16.1 µM and 11.4 µM, respectively.

As usually defined, the IC50 is the point on the concentration scale where inhibition reaches its midpoint. Low readings indicate greater potency, high ones weaker potency.
